Reference: patent publication US12404262B2 (priority 2021, dated 2025)
≈ marks a conversion by molar mass, not a printed value.

Columns and labels:
[1] = Solubility in simulated intestinal fluids (FaSSIF/FeSSIF); conditions: 25 °C, thermodynamic from solid
[2] = 1.0% DMSO, 24-hour incubation at ambient temperature, maximum theoretical 100 μM; for pH 2 solubility: 0.1N HCl, first value of the cell; for pH 7 solubility: 1×PBS buffer (pH 7.4), second value of the cell
[3] = fasted state simulated intestinal fluid (FaSSIF), fassif
[4] = fed state simulated intestinal fluid (FeSSIF), fessif

Row | Structure (SMILES) | solubility [1, 3] [µg/mL] | solubility [1, 4] [µg/mL] | pH 2 solubility [2] [μM] | pH 7 solubility [2] [μM]
1 | CC(C)(C#Cc1ccc(-c2ccc(Cl)c3c(N(C(=O)N[C@@H](COP(=O)(O)O)C(=O)O)S(C)(=O)=O)nn(CC(F)(F)F)c23)c([C@H](Cc2cc(F)cc(F)c2)NC(=O)Cn2nc(C(F)(F)F)c3c2C(F)(F)[C@@H]2C[C@H]32)n1)S(C)(=O)=O [Compound 59, N-((4-chloro-7-(2-((S)-1-(2-((3bS,4aR)-5,5-difluoro-3-(trifluoromethyl)-3b,4,4a,5-tetrahydro-1H-cyclopropa[3,4]cyclopenta[1,2-c]pyrazol-1-yl)acetamido)-2-(3,5-difluorophenyl)ethyl)-6-(3-methyl-3-(methylsulfonyl)but-1-yn-1-yl)pyridin-3-yl)-1-(2,2,2-trifluoroethyl)-1H-indazol-3-yl)(methylsulfonyl)carbamoyl)-O-phosphono-L-serine] | 798 (≈ 677 µM) | 819 (≈ 694 µM) | 2 | 21
2 | CC(C)(C#Cc1ccc(-c2ccc(Cl)c3c(N(C(=O)N[C@@H](COC(=O)C(=O)O)C(=O)O)S(C)(=O)=O)nn(CC(F)(F)F)c23)c([C@H](Cc2cc(F)cc(F)c2)NC(=O)Cn2nc(C(F)(F)F)c3c2C(F)(F)[C@@H]2C[C@H]32)n1)S(C)(=O)=O [Compound 60, O-(carboxycarbonyl)-N-((4-chloro-7-(2-((S)-1-(2-((3bS,4aR)-5,5-difluoro-3-(trifluoromethyl)-3b,4,4a,5-tetrahydro-1H-cyclopropa[3,4]cyclopenta[1,2-c]pyrazol-1-yl)acetamido)-2-(3,5-difluorophenyl)ethyl)-6-(3-methyl-3-(methylsulfonyl)but-1-yn-1-yl)pyridin-3-yl)-1-(2,2,2-trifluoroethyl)-1H-indazol-3-yl)(methylsulfonyl)carbamoyl)-L-serine] | 364 (≈ 311 µM) | 756 (≈ 645 µM) | 1 | 14
3 | CC(C)(C#Cc1ccc(-c2ccc(Cl)c3c(N(C(=O)N[C@](C)(CO)CC(=O)O)S(C)(=O)=O)nn(CC(F)(F)F)c23)c([C@H](Cc2cc(F)cc(F)c2)NC(=O)Cn2nc(C(F)(F)F)c3c2C(F)(F)[C@@H]2C[C@H]32)n1)S(C)(=O)=O [Compound 66, (S)-3-(3-(4-chloro-7-(2-((S)-1-(2-((3bS,4aR)-5,5-difluoro-3-(trifluoromethyl)-3b,4,4a,5-tetrahydro-1H-cyclopropa[3,4]cyclopenta[1,2-c]pyrazol-1-yl)acetamido)-2-(3,5-difluorophenyl)ethyl)-6-(3-methyl-3-(methylsulfonyl)but-1-yn-1-yl)pyridin-3-yl)-1-(2,2,2-trifluoroethyl)-1H-indazol-3-yl)-3-(methylsulfonyl)ureido)-4-hydroxy-3-methylbutanoic acid] | 425 (≈ 377 µM) | 140 (≈ 124 µM) | 1 | 10
4 | CC(C)(C#Cc1ccc(-c2ccc(Cl)c3c(N(C(=O)N[C@@H](CCC(=O)O)C(=O)O)S(C)(=O)=O)nn(CC(F)(F)F)c23)c([C@H](Cc2cc(F)cc(F)c2)NC(=O)Cn2nc(C(F)(F)F)c3c2C(F)(F)[C@@H]2C[C@H]32)n1)S(C)(=O)=O [Compound 68, ((4-chloro-7-(2-((S)-1-(2-((3bS,4aR)-5,5-difluoro-3-(trifluoromethyl)-3b,4,4a,5-tetrahydro-1H-cyclopropa[3,4]cyclopenta[1,2-c]pyrazol-1-yl)acetamido)-2-(3,5-difluorophenyl)ethyl)-6-(3-methyl-3-(methylsulfonyl)but-1-yn-1-yl)pyridin-3-yl)-1-(2,2,2-trifluoroethyl)-1H-indazol-3-yl)(methylsulfonyl)carbamoyl)-L-glutamic acid] | 700 (≈ 613 µM) | 246 (≈ 216 µM) | 1 | 18
5 | CC(C)(C#Cc1ccc(-c2ccc(Cl)c3c(N(C(=O)N[C@@H](CC(=O)O)C(=O)O)S(C)(=O)=O)nn(CC(F)(F)F)c23)c([C@H](Cc2cc(F)cc(F)c2)NC(=O)Cn2nc(C(F)(F)F)c3c2C(F)(F)[C@@H]2C[C@H]32)n1)S(C)(=O)=O [Compound 69, ((4-chloro-7-(2-((S)-1-(2-((3bS,4aR)-5,5-difluoro-3-(trifluoromethyl)-3b,4,4a,5-tetrahydro-1H-cyclopropa[3,4]cyclopenta[1,2-c]pyrazol-1-yl)acetamido)-2-(3,5-difluorophenyl)ethyl)-6-(3-methyl-3-(methylsulfonyl)but-1-yn-1-yl)pyridin-3-yl)-1-(2,2,2-trifluoroethyl)-1H-indazol-3-yl)(methylsulfonyl)carbamoyl)-L-aspartic acid] | 1580 (≈ 1400 µM) | 247 (≈ 219 µM) | 1 | 81
6 | CC(C)(C#Cc1ccc(-c2ccc(Cl)c3c(N(C(=O)N(CCNC(=O)OCOP(=O)(O)O)CCC(=O)O)S(C)(=O)=O)nn(CC(F)(F)F)c23)c([C@H](Cc2cc(F)cc(F)c2)NC(=O)Cn2nc(C(F)(F)F)c3c2C(F)(F)[C@@H]2C[C@H]32)n1)S(C)(=O)=O [Compound 80, 3-(3-(4-chloro-7-(2-((S)-1-(2-((3bS,4aR)-5,5-difluoro-3-(trifluoromethyl)-3b,4,4a,5-tetrahydro-1H-cyclopropa[3,4]cyclopenta[1,2-c]pyrazol-1-yl)acetamido)-2-(3,5-difluorophenyl)ethyl)-6-(3-methyl-3-(methylsulfonyl)but-1-yn-1-yl)pyridin-3-yl)-1-(2,2,2-trifluoroethyl)-1H-indazol-3-yl)-3-(methylsulfonyl)-1-(2-((((phosphonooxy)methoxy)carbonyl)amino)ethyl)ureido)propanoic acid] | 7550 (≈ 5900 µM) | 1720 (≈ 1350 µM) | 6 | 100
7 | CC(C)(C#Cc1ccc(-c2ccc(Cl)c3c(N(C(=O)N(CCCC(=O)O)CCNC(=O)OCOP(=O)(O)O)S(C)(=O)=O)nn(CC(F)(F)F)c23)c([C@H](Cc2cc(F)cc(F)c2)NC(=O)Cn2nc(C(F)(F)F)c3c2C(F)(F)[C@@H]2C[C@H]32)n1)S(C)(=O)=O [Compound 82] | 2680 (≈ 2070 µM) | 1800 (≈ 1390 µM) | 2 | 100
8 | CN(CCN(CCC(=O)O)C(=O)OCOP(=O)(O)O)C(=O)N(c1nn(CC(F)(F)F)c2c(-c3ccc(C#CC(C)(C)S(C)(=O)=O)nc3[C@H](Cc3cc(F)cc(F)c3)NC(=O)Cn3nc(C(F)(F)F)c4c3C(F)(F)[C@@H]3C[C@H]43)ccc(Cl)c12)S(C)(=O)=O [Compound 86, 3-((2-(3-(4-chloro-7-(2-((S)-1-(2-((3bS,4aR)-5,5-difluoro-3-(trifluoromethyl)-3b,4,4a,5-tetrahydro-1H-cyclopropa[3,4]cyclopenta[1,2-c]pyrazol-1-yl)acetamido)-2-(3,5-difluorophenyl)ethyl)-6-(3-methyl-3-(methylsulfonyl)but-1-yn-1-yl)pyridin-3-yl)-1-(2,2,2-trifluoroethyl)-1H-indazol-3-yl)-1-methyl-3-(methylsulfonyl)ureido)ethyl)(((phosphonooxy)methoxy)carbonyl)amino)propanoic acid] | 2020 (≈ 1560 µM) | 1470 (≈ 1130 µM) | 1 | 100
9 | CN(C(=O)N(c1nn(CC(F)(F)F)c2c(-c3ccc(C#CC(C)(C)S(C)(=O)=O)nc3[C@H](Cc3cc(F)cc(F)c3)NC(=O)Cn3nc(C(F)(F)F)c4c3C(F)(F)[C@@H]3C[C@H]43)ccc(Cl)c12)S(C)(=O)=O)[C@@H](CCC(=O)O)C(=O)OCOP(=O)(O)O [Compound 87, (S)-4-(3-(4-chloro-7-(2-((S)-1-(2-((3bS,4aR)-5,5-difluoro-3-(trifluoromethyl)-3b,4,4a,5-tetrahydro-1H-cyclopropa[3,4]cyclopenta[1,2-c]pyrazol-1-yl)acetamido)-2-(3,5-difluorophenyl)ethyl)-6-(3-methyl-3-(methylsulfonyl)but-1-yn-1-yl)pyridin-3-yl)-1-(2,2,2-trifluoroethyl)-1H-indazol-3-yl)-1-methyl-3-(methylsulfonyl)ureido)-5-oxo-5-((phosphonooxy)methoxy)pentanoic acid] | > 2480 | 299 (≈ 236 µM) | 1 | 18
10 | CN(C(=O)N(c1nn(CC(F)(F)F)c2c(-c3ccc(C#CC(C)(C)S(C)(=O)=O)nc3[C@H](Cc3cc(F)cc(F)c3)NC(=O)Cn3nc(C(F)(F)F)c4c3C(F)(F)[C@@H]3C[C@H]43)ccc(Cl)c12)S(C)(=O)=O)[C@@H](CC(=O)O)C(=O)OCOP(=O)(O)O [Compound 88, (S)-3-(3-(4-chloro-7-(2-((S)-1-(2-((3bS,4aR)-5,5-difluoro-3-(trifluoromethyl)-3b,4,4a,5-tetrahydro-1H-cyclopropa[3,4]cyclopenta[1,2-c]pyrazol-1-yl)acetamido)-2-(3,5-difluorophenyl)ethyl)-6-(3-methyl-3-(methylsulfonyl)but-1-yn-1-yl)pyridin-3-yl)-1-(2,2,2-trifluoroethyl)-1H-indazol-3-yl)-1-methyl-3-(methylsulfonyl)ureido)-4-oxo-4-((phosphonooxy)methoxy)butanoic acid] | 841 (≈ 672 µM) | 589 (≈ 471 µM) | 1 | 15
11 | CC(C)(C#Cc1ccc(-c2ccc(Cl)c3c(N(C(=O)OCOP(=O)(O)O)S(C)(=O)=O)nn(CC(F)(F)F)c23)c([C@H](Cc2cc(F)cc(F)c2)NC(=O)Cn2nc(C(F)(F)F)c3c2C(F)(F)[C@@H]2C[C@H]32)n1)S(C)(=O)=O [Compound 90, (phosphonooxy)methyl (4-chloro-7-(2-((S)-1-(2-((3bS,4aR)-5,5-difluoro-3-(trifluoromethyl)-3b,4,4a,5-tetrahydro-1H-cyclopropa[3,4]cyclopenta[1,2-c]pyrazol-1-yl)acetamido)-2-(3,5-difluorophenyl)ethyl)-6-(3-methyl-3-(methylsulfonyl)but-1-yn-1-yl)pyridin-3-yl)-1-(2,2,2-trifluoroethyl)-1H-indazol-3-yl)(methylsulfonyl)carbamate] | 2 (≈ 1.78 µM) | 3 (≈ 2.67 µM) | 1 | 48
